This is an account of results in patent US6469061B1, “Jasmonate pharmaceutical composition for treatment of cancer” (priority 2001, dated 2002).

Structures are written as SMILES. Several values for one entry are separate records, joined by “and”; a condition that tells them apart may be missing. Equal entries are not always repeated.

For data set [1], the system named is Caspase-3 activity in Molt-4 cells. The data set is described as follows: Caspase-3 (CPP32) protease assay in treated Molt-4 cells. The data set is classed as cell-based, human. The conditions noted are these: for Caspase-3 activity: all concentrations and times (2, 4, 14 hours), P<0.05. As for the experimental part: Elevated levels of Caspase-3 are a specific marker of the apoptosis process (Porter and Janicke, Cell Death Differ., 6, 99-104, 1999). In order to definitively determine that the cause of cell death was apoptosis, the level of Caspase-3 activity was measured in cells after treatment with JA and MJ. […] Briefly, 2×10^6 cells were lysed and resuspended in 100 μL of reaction buffer containing a fluorogenic Caspase-3 (CPP32) substrate Ac-DEVD-AMC. Reactions were incubated at 37° C. for 2 hours and samples were assayed at excitation wavelength of 360 nm and emission wavelength of 460 nm, in the FL600 Microplate Fluorescence Reader (Bio-Tek Instruments, Winooski, Vt., USA).

The subject of a further data set is MCF7 cells. The data set is described as follows: Trypan blue exclusion (cell death versus suppression of proliferation), MCF7. The data set is classed as cell-based, human. The text has this: (§1) Since the same number of cells was aliquoted into each well initially, decreased optical density as measured in wells containing treated cells (above) reflects cellular death and/or decrease in the rate of proliferation. To distinguish between these two possibilities we employed an additional cytotoxicity assay which detects cell death by lack of trypan blue exclusion.

The test system of a further data set is LNCaP cells. The data set is described as follows: Trypan blue exclusion (cell death versus suppression of proliferation), LNCaP. The data set is classed as cell-based, human.
Excerpt: as §1

The subject of data set [2] is Molt-4 human T lymphoblastic leukemia cell line. The data set can be described thus: CellTiter 96 Aqueous Non-Radioactive Cell Proliferation Assay (MTS cytotoxicity), Molt-4. To be noted: Molt-4 cells, 24 hours.
Protocol: All cell lines were purchased from ATCC (Rockville, Md.). All reagents were purchased from Sigma Chemicals (St. Louis, Mo.) unless otherwise stated. JA and MJ were dissolved in ethanol.
LNCaP, MCF7 and SK-28 cells (at 4×10^3/well) and Molt-4 cells (at 1.5×10^4/well) were seeded in 96-well plates and allowed to adhere overnight. Plant stress hormone at increasing concentrations was added as indicated below, and toxicity was measured after 24 hours using the CellTiter 96 Aqueous Non-Radioactive Cell Proliferation Assay (Promega, Madison, Wis.); an assay in which viable cells produce a colored product (for details on the protocol of this assay, see below). This assay is quantitative, as the amount of color produced is read using an ELISA reader.
Each cell line was incubated with each of these hormones at a concentration ranging from 0.5-3 mM for 24 hours, after which cytotoxicity was measured. The statistical significance of the results was determined (where appropriate) by two-tailed student's t-test, n=3.
This allowed for development of a color reaction in which dehydrogenases reduce the MTS in metabolically active cells. Since the cells were not washed before the addition of MTS, there were no potentially loosely adherent or non-adherent cells that could have been problematic. Soluble MTS formazan product was measured at a wavelength of 490 nm using a CERES 900 HDI ELISA reader (Bio-Tek Instruments, Inc, Highland Park, Vt.). Optical density is directly proportional to the number of living cells in culture. Cytotoxicity (%) was calculated in the following way: [(OD of control cells−OD of drug-treated cells)/OD of control cells]×100.
Normal lymphocytes and Molt-4 cells were seeded (at 1.5×10^4/well) in 96-well plates.
Jasmonates or salicylic acid were added at a concentration of 1 mM or 3 mM, and cells were incubated for 24 hours. Optical density representing viable cells was determined by the CellTiter 96 Aqueous Non-Radioactive Cell Proliferation Assay.
Data set [3] concerns Molt-4, SK-28, LNCaP and MCF7 cells. The data set is described as follows: CellTiter 96 cytotoxicity across the four transformed cell lines. The data set is classed as cell-based, human. To be noted: 0.5-3 mM, 24 hours. As for the experimental part: (§2) All cell lines were purchased from ATCC (Rockville, Md.). […] JA and MJ were dissolved in ethanol.
Results are presented as means ± standard deviation.

For data set [4], the system named is normal lymphocytes from peripheral blood of healthy donors. The data set can be described thus: CellTiter 96 cytotoxicity on normal lymphocytes stimulated by TPA/PHA. The data set is classed as cell-based, human. To be noted: 1 mM or 3 mM, 24 hours. The text has this: Normal lymphocytes were separated from peripheral blood, as follows: Mononuclear cells (MNC) from venous blood of healthy donors were collected by Ficoll-Hypaque (Phamacia Fine Chemicals, Uppsala, Sweden) density gradient centrifugation. The resultant mononuclear cell preparation was allowed to adhere to plastic dishes to remove contaminant macrophages. The non-adherent peripheral blood lymphocytes were selected for use.

The subject of data set [5] is LNCaP androgen-responsive human prostate adenocarcinoma cell line. The data set is described as follows: CellTiter 96 Aqueous Non-Radioactive Cell Proliferation Assay (MTS cytotoxicity), LNCaP. It is filed as cell-based. To be noted: LNCaP cells, 0.5-3 mM tested, 24 hours. Here is the method: as §2
Data set [6] concerns SK-28 human melanoma cells. The data set is described as follows: CellTiter 96 Aqueous Non-Radioactive Cell Proliferation Assay (MTS cytotoxicity), SK-28. The data set is classed as cell-based. The conditions noted are these: SK28 cells, 0.5-3 mM tested, 24 hours. As for the experimental part: as §2
Data set [7] deals with Molt-4 cells. The data set can be described thus: Trypan blue exclusion (cell death versus suppression of proliferation), Molt-4. It is filed as cell-based, human.
Excerpt: as §1

The test system of data set [8] is Molt-4 cells. The data set can be described thus: Fluorescence microscopy (DAPI) of nuclear morphology in Molt-4 cells. The data set is classed as cell-based, human. Here is the method: To confirm this fact, Molt-4 cells were treated with JA (2 mM) and MJ (0.5 mM) for 14 hours, and analyzed by fluorescence microscopy in order to detect essential morphological characteristics of apoptosis such as condensation and fragmentation of chromatin.
Referring to FIG. 3, fluorescence microscopy pictures are shown depicting changes in cellular morphology within the nuclei of Molt-4 cells, after treatment with plant stress hormones JA or MJ. 5×10^5 cells/sample were harvested, then fixated by addition of a solution of phosphate-buffered saline (PBS) containing [3% paraformaldehyde and 0.1% Triton X-100], for one hour. Cells were stained for 10 minutes with DAPI (1 μg/ml). Nuclei were analyzed by fluorescence microscopy, (using a fluorescence microscope model. A×70 TRF, made by Olympus Optical, Japan) at a magnification of 1:400. Characteristic apoptotic nuclei are marked with arrows.

Data set [9] concerns MCF7 human breast carcinoma cell line. The data set can be described thus: CellTiter 96 Aqueous Non-Radioactive Cell Proliferation Assay (MTS cytotoxicity), MCF7. The data set is classed as cell-based. The conditions noted are these: MCF7 cells, 0.5-3 mM tested, 24 hours. Here is the method:
as §2

The next data set deals with SK28 cells. The data set can be described thus: Trypan blue exclusion (cell death versus suppression of proliferation), SK28. It is filed as cell-based, human.
Excerpt: as §1

In the next data set the test system is EL-4 lymphoma cells. The data set is described as follows: EL-4 lymphoma model in mice, survival. It is filed as in vivo, mice (strain C57BL). As for the experimental part:
Syngeneic lymphoma cells were injected into a test group and a control group of mice (strain C57BL). The injections were administered either sub-cutaneously, or intra-peritoneally. Methyl jasmonate was administered orally, by injection directly into the resultant tumor or into the peritoneum, and the effect on tumor progression and on the rate of survival, were analyzed.
400,000 EL-4 lymphoma cells were injected intra-peritoneally into 20 test mice, or 19 control mice, of the C57BL strain.
Preliminary experiments had shown that methyl jasmonate at a dosage of 236-472 mg/kg. body weight was appropriate for prevention of tumoral growth. Therefore, methyl jasmonate was dissolved in a lipid carrier (0.4% Lipofundin, manufactured by B. Brown, Melsunger, Germany) and administered orally at a dosage of 236 mg/kg body weight. Administration was daily, via the drinking water, beginning with the day of injection of the lymphoma cells.
19 control mice received the lipid carrier only (0.4% Lipofundin), with no methyl jasmonate dissolved within.
The survival time of each group of mice was measured (in days), and analyzed.
Each of these tests weighs numerically the importance of a death within one of the two groups of mice, on a given day, compared to the number of surviving mice in the whole.

With `CC/C=C\C[C@H]1C(=O)CC[C@@H]1CC(=O)O` [JA, Jasmonic acid], the Caspase-3 activity entry in data set [1] is listed as “increased Caspase-3 activity significantly”. Besides, the “Level of Caspase-3” value in data set [1] (incubation for 2 hours) is given as “didn't induce an elevation”. Moreover, the “Kind of damage (cell death or inhibition of cell proliferation)” value in the data set with MCF7 cells is “inhibition of cell proliferation”; in the data set on LNCaP cells, “inhibition of cell proliferation”; in the data set on Molt-4 cells [7], “cell death”; in the data set on SK28 cells, “inhibition of cell proliferation”. In data set [2] (3 mM), the Cytotoxicity is reported as 90%. In addition, the “Concentrations at which cytotoxicity was significant, P<0.05” value is recorded as at least 1 mM in data set [2] (0.5-3 mM tested), at least 2 mM in data set [5], at least 2 mM in [6] and 3 mM in [9]. For the same molecule, in data set [3], the “Order of sensitivity of the cell lines” value was “Molt-4>SK-28>LNCaP>MCF7”. In addition, the “Cytotoxicity in normal lymphocytes” value in data set [4] was “do not harm normal cells”. Moreover, the “Nuclear morphology (apoptotic changes)” value in the data set on Molt-4 cells [8] (2 mM for 14 hours) was “induced condensation and fragmentation of chromatin”.
`CC/C=C\CC1C(=O)CCC1CC(=O)OC` (stereo not shown) [MJ, methyl jasmonate]: the Caspase-3 activity result in data set [1] was “increased Caspase-3 activity significantly”. Besides, the “Kind of damage (cell death or inhibition of cell proliferation)” value with MCF7 cells, in the data set on LNCaP cells, in the data set with Molt-4 cells [7] and in the data set on SK28 cells was “death” throughout. For the same molecule, the Cytotoxicity in [2] (0.5 mM) was 87.52% and 90%. The results for the “Concentrations at which cytotoxicity was significant, P<0.01” value in [2] (0.5-3 mM tested) and in [9] were “all concentrations” and 3 mM, respectively. In addition, the “Order of sensitivity of the cell lines” value in data set [3] is “Molt-4>LNCaP>SK28>MCF7”. Besides, the “Cytotoxicity in normal lymphocytes” value in data set [4] is given as “do not harm normal cells”. Besides, the “Concentrations at which cytotoxicity was significant, P<0.05” value in data set [5] and in data set [6] was at least 2 mM each time. For the same molecule, the “Plateau of survival (cumulative percentage of survival)” value in the data set on EL-4 lymphoma cells (C57BL mice, EL-4 cells i.p., 236 mg/kg orally daily via drinking water, reached on the 33rd day, control 20%, p=0.01492 Log-Rank, p=0.00953 Cox-Mantel) amounted to 50%. Moreover, the “Dosage appropriate for prevention of tumoral growth” value in the data set on EL-4 lymphoma cells (preliminary experiments in mice) is listed as 236-472 mg/kg. body weight. Further, the “Nuclear morphology (apoptotic changes)” value in the data set on Molt-4 cells [8] (0.5 mM for 14 hours) is reported as “completely destroyed nuclear morphology in almost all cells”.
Regarding `O=C([O-])c1ccccc1O.[Na+]` [SA, Sodium salicylate, reference compound], the “Kind of damage (cell death or inhibition of cell proliferation)” value in the data set with MCF7 cells, in the data set on LNCaP cells, with Molt-4 cells [7] and in the data set on SK28 cells was “inhibition of cell proliferation” each time. For the same molecule, the “Concentrations at which cytotoxicity was significant, P<0.05” value in data set [2] (0.5-3 mM tested) is “all concentrations”.
